In patent US7163924B2, “Ketolide derivatives” (Chiron Corporation, priority 2003, dated 2007):
Where two headings read alike, the source gives them in different places.

Assay: In vivo pharmacokinetic studies of pyridyl substituted ketolides in rats (plasma and whole lung, LC-MS-MS)
Details: male Sprague-Dawley rats; for clearance / Vd / AUC / bioavailability / half-life / Kp: rat; for clearance / Vd: IV = 5 mg/kg, PO = 15 mg/kg; for clearance: read-out: CL (clearance of the compound from plasma); for Vd: read-out: Vss (volume of distribution); for bioavailability: read-out: F, PO (% bioavailability); for Kp: whole lung vs plasma, read-out: L/P ratio, IV (ratio of drug in lung/plasma after IV dosing)
Experimental: Animal Models. A total of 54 male Sprague-Dawley rats, weighing 200 grams in average, are evaluated for pharmacokinetic studies of representative substituted pyridyl ketolides. Rats are under overnight food restriction and receive water ad libitum. Rats are acclimated for approximately 5 days before antibiotic administration. Antibiotic Administration. Rats are given bolus administration through intravenous (IV) and oral (PO) routes. Representative substituted pyridyl ketolides and telithromycin, for comparison, are diluted in 0.85% saline to a concentration of 15.0 mg/ml, and the resulting pH is adjusted using 1N acetic acid until the compound is in solution. Approximately 200 μl of the compound solution is administered to the rats. The target dose for IV and PO administration is 5 mg/kg and 15 mg/kg, respectively. Sample Collection. Plasma and whole lung samples are collected from the rats. Plasma samples are obtained from blood samples by centrifugation at 3000 RPM for 10 min. Heparin is added in the plasma as an anticoagulant. Whole lung samples are homogenized in deionized water. Samples are stored at −80° C. A total of 9 time points are collected in triplicate at 0.083, 0.25, 0.5, 1, 2, 4, 6, 8, and 24 h. Ketolide concentrations in plasma and lung are determined by well-established non-GLP LC-MS-MS methods. PK parameters are estimated from the raw bioanalytical data using WinNolin software (Version 4.0, Pharsight Corporation, CA). All representative compounds are compared to telithromycin.

[1] = plasma, PO 15 mg/kg vs IV 5 mg/kg
[2] = IV bolus 5 mg/kg, plasma, read-out: t1/2, IV Plasma (converted)
[3] = PO 15 mg/kg, plasma, read-out: t1/2, PO Plasma (converted)

clearance (plasma) [mL/min/kg] | Vd (plasma) [L/kg] | AUC (plasma, IV bolus 5 mg/kg) [ng·h/mL] | bioavailability [1] [%] | half-life [2] [h] | Kp (IV bolus 5 mg/kg) | half-life [3] [h] | t1/2, IV Plasma (IV bolus 5 mg/kg, plasma) [h] | F, PO (% bioavailability) (PO 15 mg/kg vs IV 5 mg/kg) [%] | t1/2, PO Plasma (PO 15 mg/kg, plasma) [h] | Compound
48 | 6.5 | 1700 | 54 | 1.8 | 27 | 3.3 |  |  |  | CC[C@H]1OC(=O)[C@H](C)C(=O)[C@H](C)[C@@H](O[C@@H]2O[C@H](C)C[C@H](N(C)C)[C@H]2O)[C@@](C)(OC)C[C@@H](C)C(=O)[C@H](C)[C@H]2N(CCCCn3cnc(-c4ccc(C)nc4)c3)C(=O)O[C@]12C [Cmpd B]
25 | 4.3 | 3000 | 100 | 2.1 | 32 |  |  |  |  | CC[C@H]1OC(=O)[C@H](C)C(=O)[C@H](C)[C@@H](OC2O[C@H](C)C[C@H](N(C)C)[C@H]2O)[C@@](C)(OC)C[C@@H](C)C(=O)[C@H](C)[C@H]2N(CCCCn3cnc(-c4ccc(OC)nc4)c3)C(=O)O[C@]12C (some centres unmarked) [Cmpd D]
38 | 5.6 | 2200 | 86 | 1.6 | 29 | 3.3 |  |  |  | CC[C@H]1OC(=O)[C@H](C)C(=O)[C@H](C)[C@@H](O[C@@H]2O[C@H](C)C[C@H](N(C)C)[C@H]2O)[C@@](C)(OC)C[C@@H](C)C(=O)[C@H](C)[C@H]2N(CCCCn3cnc(-c4ccc(Cl)nc4)c3)C(=O)O[C@]12C [Cmpd E]
100 | 5 |  |  |  | 16 |  | 1.0 | 11 | 1.5 | CC[C@H]1OC(=O)[C@H](C)C(=O)[C@H](C)[C@@H](O[C@@H]2O[C@H](C)C[C@H](N(C)C)[C@H]2O)[C@](C)(OC)C[C@@H](C)C(=O)[C@H](C)[C@H]2N(CCCCn3cnc(-c4cccnc4)c3)C(=O)O[C@]12C [Telithromycin, telithromycin, reference compound]
